{"source": "patent US10086029B2", "about": "“Fermented plant extracts, methods of production and uses” (KEFIPLANT INC., priority 2006, dated 2018)", "origin": "cited, not measured here", "tested_on": "xanthine oxidase", "settings": "glycoside versus aglycone, literature study"}
{"compound": "C[C@@H]1O[C@@H](OC[C@H]2O[C@@H](Oc3c(-c4ccc(O)c(O)c4)oc4cc(O)cc(O)c4c3=O)[C@H](O)[C@@H](O)[C@@H]2O)[C@H](O)[C@H](O)[C@H]1O", "note": "[rutine]", "values": [{"measurement": "Activity as inhibitor of xanthine oxidase relative to quercetine", "value": "nearly ten times less active than quercetine"}]}
